Source: patent US10959984B2, “Methods for treating cancer with RORγ inhibitors” (THE REGENTS OF THE UNIVERSITY OF CALIFORNIA, priority 2015, dated 2021)
“Also recorded” adds a separate entry of the source.

Legend:
[1] = test system: LNCaP cells; assay: Cell viability (Cell-Titer GLO), 4 days; type: cell-based; conditions: Homo sapiens, 96 h, treated for 4 days, read-out: IC50 (growth inhibition)
Protocol: (§1) For cell viability, cells were seeded in 96-well plates at 1500-2500 cells per well (optimum density for growth) in a total volume of 100 μl media. Serially diluted compounds in […] of media were added to the cells 12 hours later. After 4 days of incubation, Cell-Titer GLO reagents (Promega) were added and luminescence was measured on GLOMAX microplate luminometer (Promega), according to the manufacturer's instructions. All experimental points were set up as sextuplicate as biological replication and the entire experiments were repeated three times. The data are presented as percentage of viable cells with vehicle treated cells set as 100. The estimated in vitro IC50 values were calculated using GraphPad Prism 6 software.

[2] = test system: MCF-7-TamR cell line; assay: Growth of tamoxifen-resistant breast cancer cells; type: cell-based, human; conditions: MCF-7 TamR cells, in combination with tamoxifen
Protocol: (§2) Using a CellTiter-GLO assay, the viability of cells of different cancer types was measured after treatment with different concentrations of RORγ small molecule inhibitors for 4 days.

[3] = test system: VCaP xenograft tumors; assay: Spontaneous metastasis of VCaP xenografts (Alu-qPCR); type: in vivo, mice; conditions: treated 23 d
Protocol: FIGS. 28A-28C show the in vivo effects of RORγ inhibition on tumor metastasis, mouse body weight and organ weight in xenograft models. FIG. 28A: Mice bearing VCaP xenografts as in FIG. 11D, treated with vehicle, SR2211, ENZ or combination for 23 d, were assessed for spontaneous metastasis to the femur (bone marrow) and liver. Genomic DNA isolated from these sites was analyzed for metastasized cells by measuring human Alu sequence (by Alu-qPCR). FIG. 28B: Body weight of mice from different treatment groups. FIG. 28C: Weight of indicated tissues from mice treated with vehicle or SR2211 for 24 days as in FIG. 11A of C4-2B xenograft model. Significance was calculated using Student's t-test, *p=0.01, n=6.

[4] = test system: AR and AR-V7; assay: AR and AR variant expression (immunoblotting, qRT-PCR); type: cell-based, human
Protocol: Total RNA was isolated from cells in 6-well or 10-cm plates or from xenograft tumors, and the cDNA was prepared, amplified and measured in the presence of SYBR as previously^49. Briefly, the fluorescent values were collected and a melting curve analysis was performed. Fold difference was calculated as described previously^49. The experiments were performed at least three times with data presented as mean values±s.d. Cell lysates were analyzed by immunoblotting with antibodies specifically recognizing RORγ, AR, AR-V7 and the indicated proteins. The PCR primers and all the antibodies used in this study are described in the Tables 3 and 4.

[5] = test system: A549 human lung cancer cells xenograft tumors; assay: A549 lung cancer xenograft tumor growth; type: in vivo, mice; conditions: A549 xenografts, 5 mg/kg/day i.p., six weeks
Protocol: FIG. 32A: Cell viability, as measured by Cell-Titer GLO, of different lung cancer cells treated with the indicated concentrations of SR2211 for 4 days. FIG. 32B: Cell viability, as measured by Cell-Titer GLO, of different lung cancer cells treated with the indicated concentrations of GSK805 for 4 days. FIG. 32C: Half-maximal inhibitory concentration (IC50) for SR2211 and GSK805 in indicated lung cancer cell lines treated for 4 days. FIG. 32D: Effects of the indicated treatments (SR2211, 5 mg/kg i.p. five times per week; or vehicle) on the growth of lung cancer A549 xenografts (n=6 mice per group). Treatment started when A549 tumors reached approximately 100 mm^3. Mean tumor volume±s.e.m., Mean tumor weight±s.e.m. and representative tumor images are shown. P<0.01.

[6] = test system: OVCAR420, T24, ECC1, HepG2, Hep3B, T98G, SUDHL4, SUDHL6, HCT116 and docetaxel-resistant C4-2B cells; assay: CellTiter-GLO viability, cells of other cancer types; type: cell-based, human; conditions: ovarian OVCAR420, bladder T24, endometrial ECC1, liver HepG2 and Hep3B, glioblastoma T98G, DLBCL SUDHL4 and SUDHL6, colon HCT116, docetaxel-resistant C4-2B; 4 days
Protocol: as §1, §2

[7] = test system: breast cancer cells; assay: CellTiter-GLO viability, breast cancer cells; type: cell-based, human; conditions: cells having different major molecular features, 4 days
Protocol: as §1, §2

[8] = test system: ER-positive cells, such as MCF-7 and T47D; assay: CellTiter-GLO viability, ER-positive breast cancer cells; type: cell-based; conditions: Homo sapiens, 96 h; ER-positive cells MCF-7 and T47D, treated for 4 days
Protocol: as §1, §2

[9] = test system: H3K4me3 and H3K27ac at the RORE site and AR promoter; assay: ChIP-qPCR at the AR-RORE site and AR promoter; type: cell-based, human; conditions: C4-2B cells, 5 μM, 24 h
Protocol: ChIP-qPCR analysis was performed as described previously^49. The antibodies used for ChIP assay are AR (Santa Cruz; sc-815); RNA Pol-II (Santa cruz; sc-899); H3K4me2 (Abcam ab32356); H3K4me3 (Abcam; ab8580); H3K27ac (Abcam; ab4729); H3 (Active Motif; #39163); p300 (Santa Cruz; sc-585); SRC-1 (Santa Cruz; sc-8995); SRC-3/ACTR^64, and IgG (Santa Cruz; sc-2027). PCR primers used in the ChIP assays were listed in the Supplementary table 2. ChiPs were performed with each experimental point in triplicate, and each experiment was repeated three times.

OC(c1ccc(-c2ccc(CN3CCN(Cc4ccncc4)CC3)cc2)c(F)c1)(C(F)(F)F)C(F)(F)F [SR2211, 2-Fluoro-4′-[[4-(4-pyridinylmethyl)-1-piperazinyl]methyl]-a,a-bis (trifluoromethyl)-[1,1′-biphenyl]-4-methanol]
IC50 [1]: 1500 nM | sensitization of tamoxifen-resistant breast cancer cells to tamoxifen [2]: able to sensitize tamoxifen-resistant breast cancer cells to tamoxifen; also recorded: sensitized MCF-7 TamR cells to tamoxifen | metastasis to femur bone and liver [3]: strongly inhibited the metastasis to femur bone and liver | expression of AR and AR-V7 ([4]; C4-2B and VCaP cells, 72 h): potently inhibited the expression of AR and AR-V7 in a dose-dependent manner | AR expression ([4]; C4-2B cells, 5 μM, 24 hours): significant but incomplete suppression of AR expression | AR (full-length and spliced variants such as ARV7) mRNA and protein expression ([4]; qRT-PCR and Western blotting, PCa cells): strongly inhibited the expression of AR | tumor growth of xenograft lung tumor model [5]: strongly inhibited tumor growth | growth and survival of cancer cells of other types [6]: significant inhibition of the growth and survival | growth and survival of breast cancer cells [7]: strongly inhibited the growth and survival of breast cancer cells | IC50 [8]: > 10000 nM | gene activating marks H3K4me3 and H3K27ac at the RORE site and AR promoter [9]: strongly reduced
